According to ChEMBL document CHEMBL3217591, “Synthesis and biological evaluation of imidazolylmethylacridones as cytochrome P-450 enzymes inhibitors” (Medchemcomm, 2012):
pIC50: −log10 of the molar value.

What was measured:
[1] = target: T1, Cytochrome P450 11B1, mitochondrial (Homo sapiens, UniProt P15538); experiment: Inhibition of CYP11B1 (unknown origin) expressed in Chinese hamster V79MZ cells using [1,2-3H]-11-deoxycorticosterone as substrate preincubated for 60 mins followed by substrate addition measured after 25 mins by HPLC analysis; assay type: cell-based
T1 sequence (P15538 whole entry): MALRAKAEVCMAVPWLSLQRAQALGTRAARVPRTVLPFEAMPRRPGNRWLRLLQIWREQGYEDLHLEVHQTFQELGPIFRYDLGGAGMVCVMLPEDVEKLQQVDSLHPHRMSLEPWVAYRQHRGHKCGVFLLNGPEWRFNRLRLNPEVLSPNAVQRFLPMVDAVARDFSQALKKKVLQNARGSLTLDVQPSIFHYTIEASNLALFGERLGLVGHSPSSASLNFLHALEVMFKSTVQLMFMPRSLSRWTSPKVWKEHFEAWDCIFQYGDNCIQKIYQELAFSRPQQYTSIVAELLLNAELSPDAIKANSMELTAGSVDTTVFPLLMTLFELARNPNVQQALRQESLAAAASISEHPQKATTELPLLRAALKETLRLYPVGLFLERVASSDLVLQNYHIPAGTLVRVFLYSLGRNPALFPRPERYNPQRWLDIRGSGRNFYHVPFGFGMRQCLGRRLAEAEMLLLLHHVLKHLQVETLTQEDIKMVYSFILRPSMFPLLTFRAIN

[2] = target: T2, Aromatase (Homo sapiens, UniProt P11511); experiment: Inhibition of CYP19 isolated from microsomal fraction of human term placental tissue using [1beta-3H] androstenedione as substrate at 2 uM preincubated for 5 mins followed by enzyme addition measured after 20 mins by beta scintillation counting analysis relative to control
T2 sequence (P11511 whole entry): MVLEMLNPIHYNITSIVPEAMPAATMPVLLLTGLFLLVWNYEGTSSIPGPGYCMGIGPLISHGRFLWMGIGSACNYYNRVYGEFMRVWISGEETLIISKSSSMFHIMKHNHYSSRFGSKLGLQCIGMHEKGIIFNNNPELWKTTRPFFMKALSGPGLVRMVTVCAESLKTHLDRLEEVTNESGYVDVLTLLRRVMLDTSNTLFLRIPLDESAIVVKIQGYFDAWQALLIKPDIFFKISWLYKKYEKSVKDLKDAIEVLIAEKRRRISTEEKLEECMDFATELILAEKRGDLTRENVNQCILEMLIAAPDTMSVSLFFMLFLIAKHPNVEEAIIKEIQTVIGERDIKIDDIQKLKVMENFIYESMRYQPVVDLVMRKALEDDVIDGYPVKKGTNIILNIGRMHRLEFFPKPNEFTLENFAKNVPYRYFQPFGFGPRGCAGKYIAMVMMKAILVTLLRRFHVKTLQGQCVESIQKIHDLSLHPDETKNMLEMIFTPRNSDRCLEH

[3] = target: T3, Cytochrome P450 11B2, mitochondrial (Homo sapiens, UniProt P19099); experiment: Inhibition of CYP11B2 (unknown origin) expressed in Chinese hamster V79MZ cells using [1,2-3H]-11-deoxycorticosterone as substrate at 500 nM preincubated for 60 mins followed by substrate addition measured after 50 mins by HPLC analysis relative to control; assay type: cell-based
T3 sequence (P19099 whole entry): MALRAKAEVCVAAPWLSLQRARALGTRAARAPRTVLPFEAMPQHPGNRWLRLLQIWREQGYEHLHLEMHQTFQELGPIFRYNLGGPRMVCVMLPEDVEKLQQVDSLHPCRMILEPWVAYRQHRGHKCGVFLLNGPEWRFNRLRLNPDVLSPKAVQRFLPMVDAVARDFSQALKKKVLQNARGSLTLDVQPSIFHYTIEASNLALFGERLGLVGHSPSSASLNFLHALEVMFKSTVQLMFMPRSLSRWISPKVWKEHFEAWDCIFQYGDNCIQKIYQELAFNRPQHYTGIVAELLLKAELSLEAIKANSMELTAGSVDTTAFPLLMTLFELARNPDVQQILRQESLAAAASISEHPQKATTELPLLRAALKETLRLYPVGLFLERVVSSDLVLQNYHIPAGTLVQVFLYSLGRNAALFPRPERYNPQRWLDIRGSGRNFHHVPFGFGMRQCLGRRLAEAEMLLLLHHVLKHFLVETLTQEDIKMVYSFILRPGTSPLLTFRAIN

[4] = target: T1, Cytochrome P450 11B1, mitochondrial; experiment: Inhibition of CYP11B1 (unknown origin) expressed in Chinese hamster V79MZ cells using [1,2-3H]-11-deoxycorticosterone as substrate at 500 nM preincubated for 60 mins followed by substrate addition measured after 25 mins by HPLC analysis relative to control; assay type: cell-based
[5] = target: T4, Steroid 17-alpha-hydroxylase/17,20 lyase (Homo sapiens, UniProt P05093); experiment: Inhibition of human CYP17 expressed in Escherichia coli using progesterone as substrate at 2 uM preincubated for 5 mins followed by enzyme addition measured after 30 mins by HPLC analysis relative to control; conditions: 0.5 h
T4 sequence (P05093 whole entry): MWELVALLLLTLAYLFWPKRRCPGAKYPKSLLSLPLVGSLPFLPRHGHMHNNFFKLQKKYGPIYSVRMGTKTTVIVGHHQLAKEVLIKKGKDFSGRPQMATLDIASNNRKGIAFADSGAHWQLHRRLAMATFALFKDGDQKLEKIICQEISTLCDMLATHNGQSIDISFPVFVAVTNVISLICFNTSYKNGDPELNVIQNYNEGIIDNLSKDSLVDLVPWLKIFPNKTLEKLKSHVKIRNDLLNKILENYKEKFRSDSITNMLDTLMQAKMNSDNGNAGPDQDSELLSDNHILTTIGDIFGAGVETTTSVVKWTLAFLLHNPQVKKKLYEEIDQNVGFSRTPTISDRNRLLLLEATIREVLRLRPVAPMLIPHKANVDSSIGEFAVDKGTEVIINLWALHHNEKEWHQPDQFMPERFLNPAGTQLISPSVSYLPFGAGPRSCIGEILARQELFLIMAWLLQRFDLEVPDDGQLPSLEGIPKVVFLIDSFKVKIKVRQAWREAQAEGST

[6] = target: T2, Aromatase; experiment: Inhibition of CYP19 isolated from microsomal fraction of human term placental tissue using [1beta-3H] androstenedione as substrate preincubated for 5 mins followed by enzyme addition measured after 20 mins by beta scintillation counting analysis

pIC50 [1]	inhibition at 2 µM [2] [%]	inhibition at 0.5 µM [3] [%]	inhibition at 0.5 µM [4] [%]	inhibition at 2 µM [5] [%]	pIC50 [6]	Structure (SMILES)
7.67	95.5	40.8	97.5	1.4	7.84	O=c1c2ccccc2[nH]c2c(Cn3ccnc3)cccc12
–	0	3.4	40.7	0	–	O=c1c2ccccc2[nH]c2ccc(Cn3ccnc3)cc12
–	99	25.6	16.4	6.8	–	N#Cc1ccc(C(c2ccc(C#N)cc2)n2cncn2)cc1 [LETROZOLE]
–	0	95	98	–	–	CC(C)(C(=O)c1cccnc1)c1cccnc1 [METYRAPONE]
